From BindingDB's records for doi:10.1080/14756360310001612211 (Kobe Gakuin University, 2003)
Values joined by “and” are separate entries in the source; they are usually repeats but may differ in a detail not shown here. Equal values may be shown once.

The molecules below were run against Proto-oncogene tyrosine-protein kinase Src (Gallus gallus, UniProt P00523) (assay: Tyrosine Kinase Assay). Conditions: 37 °C.
Source text: Takara Universal Tyrosine Assay Kit (Takara-bio co) was used to test the synthesized compounds. This assay kit determines the inhibition activities of inhibitors against a substrate of tyrosine kinase.

Row | Compound | IC50
1 | CN(C)CCOC(=O)c1cc2ccccc2n1Cc1ccccc1 [Indole ester derivative, 6] | > 500 µM and 631 µM
2 | CCN(CC)CCOC(=O)c1cc2ccccc2n1Cc1ccccc1 [Indole ester derivative, 7] | > 1000 µM and 614 µM
3 | O=C(OCCN(n1cccc1)n1cccc1)c1cc2ccccc2n1Cc1ccccc1 [Indole ester derivative, 8] | > 1000 µM and 215 µM
4 | CC(CN(C)C)OC(=O)c1cc2ccccc2n1Cc1ccccc1 (stereo not drawn) [Indole ester derivative, 10] | > 1000 µM
5 | O=C(OCCN(N1CCCCC1)N1CCCCC1)c1cc2ccccc2n1-c1ccccc1 [Indole ester derivative, 16] | 306 µM and > 1000 µM and 279 µM
6 | CN(C)CCOC(=O)c1cc2ccccc2n1-c1ccccc1 [Indole ester derivative, 17] | > 1000 µM

Second part, the molecule after the results:

Row | IC50 | Compound
7 | > 1000 µM and 817 µM | CCN(CC)CCOC(=O)c1cc2ccccc2n1-c1ccccc1 [Indole ester derivative, 18]
8 | 258 µM and > 1000 µM | O=C(OCCN(n1cccc1)n1cccc1)c1cc2ccccc2n1-c1ccccc1 [Indole ester derivative, 19]
9 | > 1000 µM | CC(CN(C)C)OC(=O)c1cc2ccccc2n1-c1ccccc1 (stereo not drawn) [Indole ester derivative, 21]
10 | > 1000 µM | CCN(CC)CCOC(=O)c1cc2ccccc2[nH]1 [Indole ester derivative, 23]
11 | 21.4 µM | O=C(OCCN(n1cccc1)n1cccc1)c1cc2ccccc2[nH]1 [Indole ester derivative, 24]
12 | > 500 µM | CC(CN(C)C)OC(=O)c1cc2ccccc2[nH]1 (stereo not drawn) [Indole ester derivative, 26]
13 | 830 µM and > 500 µM | O=C(OCCN(N1CCCCC1)N1CCCCC1)c1cc2ccccc2[nH]1 [Indole ester derivative, 27]
